# Reference: patent US11021481B2, “Substituted isoindolin-1-ones and 2,3-dihydro-1h-pyrrolo[3,4-c]pyridin-1-ones as HPK1 antagonists” (Nimbus Saturn, Inc., priority 2019, dated 2021)
# Target: HPK1 (Homo sapiens (Human), UniProt Q92918)
# Assay: HPK1 biochemical enzyme assay (microfluidic mobility shift assay)
# Details: 1.5 nM HPK1, ATP 1 mM final, 30 min preincubation, 60 min at RT, Caliper EZ Reader; read-out: HPK1 1000UMATP caliper IC50
# Description: HPK1 biochemical enzyme assay: HPK1 enzyme inhibition was measured using a microfluidic mobility shift assay. […] Test compounds were titrated in ten point curves (top final assay concentration 3 μM), and preincubated with enzyme/substrate mix for 30 min prior to initiation of the reaction by addition of ATP (1 mM final concentration) and substrate (1 μM final concentration; Carna Biosciences) diluted in assay buffer supplemented by MgCl2 (final assay concentration of 5 mM). Following 60 min incubation at RT, the reaction was terminated by addition of 60 µl/well termination buffer (Carna Biosciences) and signal determination using aCaliper EZ Reader (Perkin Elmer, UK).
# The compound numbers correspond to the compound numbers in Table 1.
# Chain of HPK1 (Q92918 whole entry): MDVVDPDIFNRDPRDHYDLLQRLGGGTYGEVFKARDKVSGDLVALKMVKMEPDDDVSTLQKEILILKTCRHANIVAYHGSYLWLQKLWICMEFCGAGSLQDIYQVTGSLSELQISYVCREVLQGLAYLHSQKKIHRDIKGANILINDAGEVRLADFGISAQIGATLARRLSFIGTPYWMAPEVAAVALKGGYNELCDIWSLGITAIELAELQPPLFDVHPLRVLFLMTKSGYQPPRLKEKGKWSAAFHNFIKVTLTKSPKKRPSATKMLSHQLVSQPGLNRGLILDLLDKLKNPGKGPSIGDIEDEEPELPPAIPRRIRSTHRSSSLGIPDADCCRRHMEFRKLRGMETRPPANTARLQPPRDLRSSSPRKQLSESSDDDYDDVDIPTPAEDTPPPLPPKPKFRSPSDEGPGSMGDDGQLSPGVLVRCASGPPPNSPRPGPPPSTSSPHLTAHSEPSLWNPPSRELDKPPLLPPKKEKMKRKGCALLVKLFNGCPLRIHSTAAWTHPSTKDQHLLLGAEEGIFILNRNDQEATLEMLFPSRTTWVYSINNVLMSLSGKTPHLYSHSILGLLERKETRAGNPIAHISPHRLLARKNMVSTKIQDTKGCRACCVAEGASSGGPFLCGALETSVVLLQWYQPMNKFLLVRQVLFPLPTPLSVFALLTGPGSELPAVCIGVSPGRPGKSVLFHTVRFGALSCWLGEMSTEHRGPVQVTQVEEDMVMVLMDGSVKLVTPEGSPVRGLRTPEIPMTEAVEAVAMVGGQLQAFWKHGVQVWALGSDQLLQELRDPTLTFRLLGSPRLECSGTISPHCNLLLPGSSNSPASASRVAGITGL
row,Compound,IC50
1,"4-(6- methylpyrazol o[1,5-a]pyridin-3- yl)-7-[[5- (morpholino- methyl)-2- pyridyl]amino] isoindolin-1-one [I-469]",< 100 nM
2,"4-(7- fluoroimidazo [1,2-a]pyridin- 3-yl)-7-[[5-(4- morpholino-1- piperidyl)-2- pyridyl]amino] isoindolin-1- one [I-488]",< 100 nM
3,"4-imidazo[1,2- a]pyridin-3-yl- 7-[(5-morpholino-2- pyridyl)-amino]-2,3- dihydropyrrolo [3,4-c]pyridin-1- one [I-198]",100 to 1000 nM
4,"7-[[6- [(dimethylamino)- methyl]-5- tetrahydrofuran- 3-yl-2- pyridyl]amino]- 4-(7- methylimidazo [1,2-a]pyrimidin-3- yl)isoindolin- 1-one [I-846]",< 100 nM
5,"C[C@@H]1CCn2c(-c3ccc(Nc4ccc(N5CCC(O)CC5)cn4)c4c3CNC4=O)cnc2C1 (single isomer, unassigned) [I-302]",100 to 1000 nM
6,"Cn1ccc2c(-c3ccc(-n4ccc(N5CCC[C@@](C)(O)C5)n4)c4c3CNC4=O)ccnc21 (single isomer, unassigned) [I-305]",> 1000 nM
7,"Cn1ccc2c(-c3ccc(-n4ccc(N5CCC[C@](C)(O)C5)n4)c4c3CNC4=O)ccnc21 (single isomer, unassigned) [I-306]",> 1000 nM
8,"Cn1ccc2c(-c3ncc(Nc4cncc(N5CC[C@@H]6CNC[C@@H]65)n4)c4c3CNC4=O)ccnc21 (single isomer, unassigned) [I-661]",100 to 1000 nM
9,"O=C1NCc2c(-c3cnc4cc(F)ccn34)ccc(Nc3ccc(N4CCO[C@H](C5(O)CC5)C4)cn3)c21 (single isomer, unassigned) [I-662]",< 100 nM
10,"O=C1NCc2c(-c3cnc4cc(F)ccn34)ccc(Nc3ccc(N4CCO[C@@H](C5(O)CC5)C4)cn3)c21 (single isomer, unassigned) [I-663]",< 100 nM
11,"CC(C)(N)[C@@H]1CN(c2ccc(Nc3ccc(-c4cnc5cc(F)ccn45)c4c3C(=O)NC4)nc2)CCO1 (single isomer, unassigned) [I-670]",< 100 nM

# Results, then the compound that gave them:
row,IC50,Compound
1,< 100 nM,"4-(1-methyl- 1H-indol-4- yl)-7-((5- (piperazin-1- yl)pyridin-2- yl)amino)-2,3- dihydro-1H- pyrrolo[3,4- c]pyridin-1-one [I-266]"
2,< 100 nM,"7-[[5-(4-hydroxy-1- piperidyl)-2-pyridyl] amino]-4-imidazo[1,2- a]pyridin-3-yl- isoindolin-1-one [I-125]"
3,< 100 nM,"7-[[5-[(2R)-2- (1-hydroxy-1- methylethyl)morpholin- 4-yl]-2- pyridyl]amino]- 4-imidazo[1,2- a]pyrazin-3-yl- isoindolin-1-one [I-486]"
4,< 100 nM,"Cn1ccc2c(-c3ccc(Nc4ccc(N5CCC[C@H](C(C)(C)O)C5)cn4)c4c3CNC4=O)ccnc21 (single isomer, unassigned) [I-280]"
5,< 100 nM,"Cn1ccc2c(-c3ccc(Nc4ccc(N5CCC[C@@H](C(C)(C)O)C5)cn4)c4c3CNC4=O)ccnc21 (single isomer, unassigned) [I-281]"
6,< 100 nM,"C[C@@H](O)[C@H]1CN(c2ccc(Nc3ccc(-c4cnc5cc(F)ccn45)c4c3C(=O)NC4)nc2)CCO1 (single isomer, unassigned) [I-619]"
7,< 100 nM,"C[C@H](O)[C@@H]1CN(c2ccc(Nc3ccc(-c4cnc5cc(F)ccn45)c4c3C(=O)NC4)nc2)CCO1 (single isomer, unassigned) [I-620]"
8,< 100 nM,"C[C@H](c1ccc(Nc2ccc(-c3cnc4cc(F)ccn34)c3c2C(=O)NC3)nc1)N1CCOCC1 (single isomer, unassigned) [I-639]"
9,< 100 nM,"C[C@@H](c1ccc(Nc2ccc(-c3cnc4cc(F)ccn34)c3c2C(=O)NC3)nc1)N1CCOCC1 (single isomer, unassigned) [I-640]"
10,< 100 nM,"Cn1ccc2c(-c3ncc(Nc4cncc(N5CC[C@H]6CNC[C@H]65)n4)c4c3CNC4=O)ccnc21 (single isomer, unassigned) [I-660]"
